Measured values from a melting point compilation (Tetko et al.; mined from patent text by program, amines drawn as free bases though some values may be those of a salt).

With `CCC1(c2cccs2)OCC(=O)Nc2ccc(-c3sc(C#N)cc3C)cc21` (centres undefined) the melting point was 182 to 184 °C. In the case of `COc1ccc2ccc(NC(=O)c3ccccc3)nc2n1`, the melting point is reported as 134 °C. `CCOc1ccc2ccccc2c1C(=O)N[C@H](Cc1ccc(C(F)(F)F)cc1)[C@H](O)c1ccc(F)cc1` (racemic) showed a melting point of 157 to 158 °C. Compound `Cc1cccc(NC(=O)NCC(=O)N(CC(=O)Oc2ccccc2)c2ccccc2)c1` has a melting point of 206 °C. Work on `CC(C)n1nc(-c2sc(C(=O)NC3CC3)nc2-c2ccccc2F)ccc1=O` yielded a melting point of 134 to 135 °C. For `Cc1ccc(CCOc2ccc(NC(=O)N(C)C)cc2)nc1`, the melting point was 148 to 150 °C. `Cc1noc(NC(=O)N2CCN(c3nccc(-c4ccccc4F)n3)CC2)c1C` gave a melting point of 194 to 195 °C. Work on `CCOC(=O)C1CSCCN1C(=O)Nc1ccc(Cl)cc1F` (centres undefined) yielded a melting point of 112 °C. For `COc1c(N2CC(C)C(NC3CC3)C(C)C2)c(F)cc2c(=O)c(C(=O)O)cn(C3CC3)c12` (centres undefined), the melting point was 240 to 242 °C. With `CC1(C)CCc2c(N3CCCC3)nc3sc4c(NCC(=O)NCC5CCCO5)ncnc4c3c2C1` (centres undefined) the melting point was 210 to 211 °C. Work on `O=C(Nc1ccc(CBr)c(C(F)(F)F)c1)C(F)(F)F` yielded a melting point of 119 to 120 °C. Work on `CCn1cnc(=O)c(-c2cccc(C(F)(F)F)c2)c1` yielded a melting point of 172 to 173 °C. For `CCOc1ccc2c(=O)cc(-c3ccccc3)oc2c1`, the melting point was 138 to 139 °C. With `Cc1cc(Cn2nc(C(F)(F)C(F)(F)F)nc2C(F)(F)F)ccc1NC(=O)c1cccc(Br)c1C(=O)N[C@@H](C)CS(C)(=O)=O` the melting point was 104 to 108 °C. `COCO[C@@H](CCCCC1CCCCC1)CCc1ccc(C(C)(C)C)c(NC(=O)CC2c3ccccc3Oc3ccccc32)c1` showed a melting point of 71 to 73 °C. `COc1ccccc1N1CCN(CCCCc2ccc(C3CCC(=O)N3)cc2)CC1` (centres undefined) gave a melting point of 130 to 131 °C. In the case of `O=C1CCC(=O)C1C(=O)CCc1ccc2c(c1)OCO2`, the melting point is reported as 93 to 94 °C. `C[C@@H](NC(=O)c1cnn(-c2ccc(Cl)cc2)c1C1CC1)[C@](O)(Cn1cncn1)c1ccc(F)cc1F` showed a melting point of 181 to 182 °C. Compound `Cc1oc(-c2cccs2)nc1COc1ccc(CON=C(CCC(=O)O)c2ccccc2)cc1` has a melting point of 142 to 143 °C. With `CCCCCCCCCNC(C)C(=O)O` (centres undefined) the melting point was 264 °C. For `COC1(c2cc(F)cc(S(=O)(=O)c3ccc(/C(C)=N/O)cc3)c2)CCOCC1`, the melting point was 180 to 181 °C. `CCOC(=O)C1=Cc2cc(Cl)cc(Br)c2OC1C(F)(F)F` (centres undefined) showed a melting point of 101 to 102 °C. Compound `CC(C)COC(=O)N1CCN(C2=C(Cl)C(=O)c3ccccc3C2=O)CC1` has a melting point of 92 to 94 °C. `CCOC(=O)c1cc(NCc2ccccc2)c(N2CCOCC2)c(S(N)(=O)=O)c1` gave a melting point of 185 to 186 °C. Work on `CCCCC[C@@H](CNC(=O)Nc1c(N(C)C)ncnc1N(C)C)c1cccc2c1OCO2` yielded a melting point of 151 to 152 °C. `NC(CS(=O)(=O)c1ccccc1)=NNC(=O)c1cc2ccccc2o1` gave a melting point of 205 to 220 °C. Work on `CCOC(=O)COc1ccc(C=O)cc1OC` yielded a melting point of 56 to 59 °C. Compound `O=C(c1ccccc1Cl)c1cccnc1Br` has a melting point of 76.3 °C. Work on `CC1(C)C(=O)Nc2ccc(-c3cccc(C#N)c3F)cc21` yielded a melting point of 231 to 232 °C. `O=C(Nc1nccs1)C(CC1CCCC1)c1ccc([N+](=O)[O-])cc1` (centres undefined) showed a melting point of 134 to 136 °C. In the case of `COc1ccc2nc3c(nc2c1)SC(C#N)=C(C#N)S3`, the melting point is reported as 154 to 156 °C. Compound `COc1cccc(N(C)C(=O)Oc2ccc(C(C)C)cc2)n1` has a melting point of 64 to 65 °C. `COC1=CC2SC2C2(OC)SC12OC` (centres undefined) gave a melting point of 143 to 144 °C. In the case of `CCC(=O)OC1C(=O)N(CCNC)c2ccc(C)cc2SC1c1ccc(C)cc1` (centres undefined), the melting point is reported as 128 to 132 °C. Work on `Cn1cc(C2=C(c3cn(CCCCl)c4ccccc34)C(=O)NC2=O)c2ccccc21` yielded a melting point of 254 to 256 °C. For `CCOC(=O)c1cnn(-c2ccc(F)cc2)c1`, the melting point was 119 to 121 °C. Compound `O=C(O)Cc1c(C(=O)O)c2cc(Oc3cccc(Cl)c3)ccc2n1-c1ccccc1` has a melting point of 192 to 194 °C. Work on `Cc1cc(C(=O)c2[nH]c3cc(Cl)ccc3c2NC(=O)CC(C)C)ccc1Cl` yielded a melting point of 202 to 203 °C. For `COC(=O)C(C)(C)CCCOc1ccc(NC(=O)C(C)(C)CCCOc2cc(C)ccc2C)cc1`, the melting point was 62 to 63 °C. `CN1CC(CO)CC2(O)c3cccc4[nH]cc(c34)CC12` (centres undefined) gave a melting point of 175 to 179 °C. Work on `CN(C)Cc1cc(CCCCCCCOc2ccc(C3=NCCO3)cc2)on1` yielded a melting point of 69.5 to 70 °C. `Nc1ncnc2c1c(-c1cc(O)cc(F)c1)nn2Cc1oc2ccc(F)cc2c(=O)c1-c1cccc(F)c1` showed a melting point of 127 to 129 °C. For `CCCCC(=O)c1c(C)nc2cc(OC)c(OC)cc2c1-c1ccc(OC)c(OC)c1`, the melting point was 119 to 120 °C. In the case of `CCN(CC)c1ccc(Nc2nc(N)c(C(=O)c3ccccc3[N+](=O)[O-])s2)cc1`, the melting point is reported as 202 to 205 °C. Work on `Cc1ncc(CN2CCN(c3ccccc3C)CC2)c(N)n1` yielded a melting point of 189 to 190 °C. Work on `CCOc1cc(C(=O)O)cc(N)c1-c1ccccc1` yielded a melting point of 138 °C. `O=C(Nc1ccc2cc(CN3CCC(CCO)CC3)cnc2c1)c1ccc(-c2ccc(F)cc2)cc1` gave a melting point of 193 to 196 °C. `COc1ccc(-c2nn(CCCCCCBr)c(=O)c3ccccc23)cc1OC` gave a melting point of 83 to 84 °C. `Nc1n[nH]c2c1cnc1c(NC(=O)c3c(Cl)cccc3Cl)cccc12` gave a melting point of over 300 °C.
